Read-outs that look alike come from different tables or passages of the source.
Key:
PBRM1-BD2 [1] = target: T1, PBRM1-BD2 (Homo sapiens (Human), UniProt Q86U86); test: biochemical; type: binding
Procedure: DSF measures protein unfolding by monitoring the fluorescence of the SYPRO Orange dye as a function of temperature; positive thermal shifts indicate ligand binding induced stabilization of the protein.
(§1) Differential Scanning Fluorimetry (DSF). Bromodomain DSF Tm assays were performed using an Mx3005P (Stratagene) PCR detection system and low profile 96-well PCR plates (UltraFlux, Flat Top, SSI 3400-00S). […] The temperature was raised by 1° C./min from 25-95° C., and fluorescence readings were taken at each interval. Melting curves were analyzed using our online interactive fitting tool for thermofluor experiments (https://dsf-analysis.herokuapp.com/DSF-analysis) and plotted using GraphPad Prism.

PBRM1-BD5 = PBRM1-BD5 (Homo sapiens (Human), UniProt Q86U86); settings: DSF
Chain of PBRM1-BD5 (Q86U86 653-763): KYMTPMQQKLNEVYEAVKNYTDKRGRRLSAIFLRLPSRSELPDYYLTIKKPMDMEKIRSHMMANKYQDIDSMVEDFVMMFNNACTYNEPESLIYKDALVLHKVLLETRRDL

BRD2-BD2 = BRD2-BD2 (Homo sapiens (Human), UniProt P25440); test: DSF selectivity profiling; type: binding
Chain of BRD2-BD2 (P25440 344-453): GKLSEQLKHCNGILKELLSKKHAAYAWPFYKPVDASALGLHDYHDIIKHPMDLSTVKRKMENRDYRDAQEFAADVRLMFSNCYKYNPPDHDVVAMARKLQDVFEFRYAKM
Procedure: as §1

TRIM33A = TRIM33A (Homo sapiens (Human), UniProt Q9UPN9); test: DSF selectivity profiling; type: binding
Chain of TRIM33A (Q9UPN9 957-1080): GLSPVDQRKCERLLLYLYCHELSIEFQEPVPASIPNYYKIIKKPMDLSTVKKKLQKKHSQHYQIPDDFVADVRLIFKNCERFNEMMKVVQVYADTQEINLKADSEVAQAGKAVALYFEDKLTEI
Procedure: as §1

BRD7 = BRD7 (Homo sapiens (Human), UniProt Q9NPI1); test: DSF selectivity profiling; type: binding
Chain of BRD7 (Q9NPI1 131-235): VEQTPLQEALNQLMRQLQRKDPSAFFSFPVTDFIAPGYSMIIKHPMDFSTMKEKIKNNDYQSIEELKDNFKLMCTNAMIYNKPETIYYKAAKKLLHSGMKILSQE
Procedure: as §1

p300 = p300 (Homo sapiens (Human), UniProt Q09472); test: DSF selectivity profiling; type: binding
Chain of p300 (Q09472 1049-1156): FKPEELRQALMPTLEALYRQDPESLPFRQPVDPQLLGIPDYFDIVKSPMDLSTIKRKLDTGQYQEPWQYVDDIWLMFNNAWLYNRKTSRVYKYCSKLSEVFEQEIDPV
Procedure: as §1

CECR2 = CECR2 (Homo sapiens (Human), UniProt Q9BXF3); test: DSF selectivity profiling; type: binding
Chain of CECR2 (Q9BXF3 434-538): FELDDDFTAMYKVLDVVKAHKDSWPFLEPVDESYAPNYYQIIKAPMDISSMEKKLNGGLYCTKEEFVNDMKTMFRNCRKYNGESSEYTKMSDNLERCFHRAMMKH
Procedure: as §1

PBRM1-BD1 = PBRM1-BD1 (Homo sapiens (Human), UniProt Q86U86); test: DSF selectivity profiling; type: binding
Chain of PBRM1-BD1 (Q86U86 41-151): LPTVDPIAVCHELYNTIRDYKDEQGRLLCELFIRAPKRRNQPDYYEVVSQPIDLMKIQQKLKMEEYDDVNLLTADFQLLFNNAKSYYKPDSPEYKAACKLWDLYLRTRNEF
Procedure: as §1

CREBBP = CREBBP (Homo sapiens (Human), UniProt Q92793); test: DSF selectivity profiling; type: binding
Chain of CREBBP (Q92793 1085-1192): as the sequence (Q09472 1049-1156) above, with S47N, I73V, Y93F, S98A counted along it
Procedure: as §1

PBRM1-BD3 = PBRM1-BD3 (Homo sapiens (Human), UniProt Q86U86); test: DSF selectivity profiling; type: binding
Chain of PBRM1-BD3 (Q86U86 381-487): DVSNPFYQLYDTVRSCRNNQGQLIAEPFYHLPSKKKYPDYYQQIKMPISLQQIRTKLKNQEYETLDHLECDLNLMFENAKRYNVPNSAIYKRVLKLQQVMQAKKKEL
Procedure: as §1

PBRM1-BD6 = PBRM1-BD6 (Homo sapiens (Human), UniProt Q86U86); test: DSF selectivity profiling; type: binding
Chain of PBRM1-BD6 (Q86U86 769-879): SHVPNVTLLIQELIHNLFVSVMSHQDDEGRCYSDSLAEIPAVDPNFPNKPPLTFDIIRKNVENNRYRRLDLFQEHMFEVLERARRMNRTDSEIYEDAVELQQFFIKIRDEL
Procedure: as §1

BRD4-BD2 = BRD4-BD2 (Homo sapiens (Human), UniProt O60885); test: DSF selectivity profiling; type: binding
Procedure: as §1

BRD3-BD1 = BRD3-BD1 (Homo sapiens (Human), UniProt Q15059); test: DSF selectivity profiling; type: binding
Chain of BRD3-BD1 (Q15059 34-140): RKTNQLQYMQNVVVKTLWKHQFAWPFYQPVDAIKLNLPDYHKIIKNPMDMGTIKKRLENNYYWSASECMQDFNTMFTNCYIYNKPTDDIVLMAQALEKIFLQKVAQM
Procedure: as §1

PBRM1-BD4 = PBRM1-BD4 (Homo sapiens (Human), UniProt Q86U86); test: DSF selectivity profiling; type: binding
Chain of PBRM1-BD4 (Q86U86 518-625): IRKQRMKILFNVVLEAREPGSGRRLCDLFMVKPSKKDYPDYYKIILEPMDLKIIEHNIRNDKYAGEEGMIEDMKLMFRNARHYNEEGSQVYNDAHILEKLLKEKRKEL
Procedure: as §1

ASH1L = ASH1L (Homo sapiens (Human), UniProt Q9NR48); test: DSF selectivity profiling; type: binding
Procedure: as §1

BRDT-BD1 = BRDT-BD1 (Homo sapiens (Human), UniProt Q58F21); test: DSF selectivity profiling; type: binding
Procedure: as §1

SMARCA4 = SMARCA4 (Homo sapiens (Human), UniProt P51532); test: DSF selectivity profiling; type: binding
Chain of SMARCA4 (P51532 1453-1564): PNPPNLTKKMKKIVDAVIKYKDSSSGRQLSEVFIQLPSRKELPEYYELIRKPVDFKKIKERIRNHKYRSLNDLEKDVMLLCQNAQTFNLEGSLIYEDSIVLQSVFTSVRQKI
Procedure: as §1

SMARCA2 = SMARCA2 (Homo sapiens (Human), UniProt P51531); test: DSF selectivity profiling; type: binding
Chain of SMARCA2 (P51531 1378-1506): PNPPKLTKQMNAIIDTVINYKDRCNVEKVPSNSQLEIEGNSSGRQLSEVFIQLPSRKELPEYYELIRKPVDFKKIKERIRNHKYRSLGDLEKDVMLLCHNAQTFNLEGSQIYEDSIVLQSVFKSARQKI
Procedure: as §1

BRD3-BD2 = BRD3-BD2 (Homo sapiens (Human), UniProt Q15059); test: DSF selectivity profiling; type: binding
Chain of BRD3-BD2 (Q15059 306-415): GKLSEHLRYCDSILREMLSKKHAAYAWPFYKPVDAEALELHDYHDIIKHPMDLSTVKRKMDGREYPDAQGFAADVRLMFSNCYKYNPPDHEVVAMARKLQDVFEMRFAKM
Procedure: as §1

BRD4-BD1 = BRD4-BD1 (Homo sapiens (Human), UniProt O60885); test: DSF selectivity profiling; type: binding
Procedure: as §1

PCAF = PCAF (Homo sapiens (Human), UniProt Q92831); test: DSF selectivity profiling; type: binding
Chain of PCAF (Q92831 723-827): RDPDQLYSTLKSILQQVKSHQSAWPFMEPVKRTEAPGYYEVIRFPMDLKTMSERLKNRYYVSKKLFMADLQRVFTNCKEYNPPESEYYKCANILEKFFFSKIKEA
Procedure: as §1

PBRM1-BD2 [2] = target: T1, PBRM1-BD2; test: biochemical; type: binding; settings: read-out: Kd
Procedure: Protein-detected NMR-based fragment screening has the advantage of providing information about both binding affinity and the amino acid residues involved in binding.
NMR spectroscopy. Automated NMR data collection was performed on ^15N-labeled PBRM1-BD2 (50 μM) by using ^1H,^15N SOFAST-HMQC experiments. […] The total time for screening 85 or 82 samples each containing 12 fragments or DMSO by ^1H,^15N SOFAST-HMQC was 46 h (˜32 min/sample). […] All NMR data were processed using NMRPipe^4 in NMRbox.^5 Spectra were processed by using in-house automated Python scripts in NMRPipe,^4 and chemical shifts perturbation were analyzed using SPARKY.^6 Total ^1H/^15N chemical shift perturbations and equilibrium dissociation constants (Kd) were calculated as reported.^2

PBRM1-BD2 [3] = target: T1, PBRM1-BD2; test: AlphaScreen competition assay, His6-tagged PBRM1-BD2 and biotinylated H3K14ac peptide; type: binding; settings: 0.2 μM His6-PBRM1-BD2, 0.1 μM biotinylated H3K14ac peptide
[4] = read-out: PBRM1-BD2 ΔTm, DSF, 10 μM protein, 100 μM inhibitor, vs apoprotein

T1 sequence (Q86U86 177-287): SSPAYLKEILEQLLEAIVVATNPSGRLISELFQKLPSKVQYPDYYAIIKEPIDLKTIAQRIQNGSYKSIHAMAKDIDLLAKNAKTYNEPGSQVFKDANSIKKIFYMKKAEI

With `CN(C)/C=C1\CCn2c1nc(=O)c1c(Cl)cccc12` [Compound 2, (E)-6-Chloro-3-((dimethylamino)methylene)-2,3-dihydropyrrolo[1,2-a]quinazolin-5(1H)-one, reference compound] the ΔTm at 100 µM (PBRM1-BD2 [1]; [4]) was 3.3 ± 0.4 °C, the “PBRM1-BD5 ΔTm” value (PBRM1-BD5) was 7.7 °C and the “BRD2-BD2 ΔTm” value (BRD2-BD2) was −0.2 °C. The “TRIM33A ΔTm” value (TRIM33A) was −0.9 °C, the “BRD7 ΔTm” value (BRD7) was 1.2 °C and the “p300 ΔTm” value (p300) was −0.6 °C. The “CECR2 ΔTm” value (CECR2) was 2.0 °C, the “PBRM1-BD1 ΔTm” value (PBRM1-BD1) was −0.1 °C and the “CREBBP ΔTm” value (CREBBP) was 0.1 °C. The “PBRM1-BD3 ΔTm” value (PBRM1-BD3) was 2.6 °C, the “PBRM1-BD6 ΔTm” value (PBRM1-BD6) was −1.4 °C and the “BRD4-BD2 ΔTm” value (BRD4-BD2) was −0.6 °C. The “BRD3-BD1 ΔTm” value (BRD3-BD1) was 0.1 °C, the “PBRM1-BD4 ΔTm” value (PBRM1-BD4) was 0.3 °C and the “ASH1L ΔTm” value (ASH1L) was −0.7 °C. For the same compound, the “BRDT-BD1 ΔTm” value (BRDT-BD1) was −0.1 °C, the “SMARCA4 ΔTm” value (SMARCA4) was 2 °C and the “SMARCA2 ΔTm” value (SMARCA2) was 2.2 °C. The “BRD3-BD2 ΔTm” value (BRD3-BD2) was 0.5 °C, the “BRD4-BD1 ΔTm” value (BRD4-BD1) was 0.1 °C and the “PCAF ΔTm” value (PCAF) was −0.2 °C.
With `NC(=S)c1ccc(F)cc1` [Compound 6h] the Kd (PBRM1-BD2 [2]) was over 2000 µM.
`COc1cccc(OCC(F)(F)F)c1C#N` [Compound 6i] gave a Kd (PBRM1-BD2 [2]) of over 2000 µM.
For `N#Cc1ncccc1N1CCCCC1` [Compound 6j], the Kd (PBRM1-BD2 [2]) was over 2000 µM.
For `CCC(/C=C1\CCn2c1nc(=O)c1ccccc12)CC` [Compound 8, (E)-3-(2-Ethylbutylidene)-2,3-dihydropyrrolo[1,2-a]quinazolin-5(1H)-one, reference compound], the “ASH1L ΔTm” value (ASH1L) was “did not show binding”.
`O=C1NC(c2c(F)cccc2Cl)Nc2cccc(Cl)c21` (stereo not shown) [Compound 11, 5-Chloro-2-(2-chloro-6-fluorophenyl)-2,3-dihydroquinazolin-4(1H)-one] gave a ΔTm at 100 µM (PBRM1-BD2 [1]; [4]) of 4.4 ± 0.4 °C.
For `Cc1cccc(C)c1C1NC(=O)c2c(Cl)cccc2N1` (stereo not shown) [Compound 26, 5-Chloro-2-(2,6-dimethylphenyl)-2,3-dihydroquinazolin-4(1H)-one], the “BRD2-BD2 ΔTm” value (BRD2-BD2) was 0.5 °C, the “TRIM33A ΔTm” value (TRIM33A) was 0.5 °C and the “BRD7 ΔTm” value (BRD7) was 0.1 °C. For the same compound, the “p300 ΔTm” value (p300) was 0.2 °C, the “CECR2 ΔTm” value (CECR2) was 1.3 °C and the “CREBBP ΔTm” value (CREBBP) was 0.2 °C. The “BRD4-BD2 ΔTm” value (BRD4-BD2) was −4.4 °C, the “BRD3-BD1 ΔTm” value (BRD3-BD1) was 0.0 °C and the “ASH1L ΔTm” value (ASH1L) was −0.8 °C. For the same compound, the “BRDT-BD1 ΔTm” value (BRDT-BD1) was −0.6 °C, the “SMARCA2 ΔTm” value (SMARCA2) was 0.5 °C and the “BRD3-BD2 ΔTm” value (BRD3-BD2) was 0.3 °C. For the same compound, the “BRD4-BD1 ΔTm” value (BRD4-BD1) was 0 °C and the “PCAF ΔTm” value (PCAF) was 0.6 °C.
Compound `COc1cccc2c1C(=O)NC(c1ccccc1C)N2` (stereo not shown) [Compound 31, 5-Methoxy-2-(2-methylphenyl)-2,3-dihydroquinazolin-4(1H)-one] has a ΔTm at 100 µM (PBRM1-BD2 [1]; [4]) of 0 °C and an IC50 (PBRM1-BD2 [3]) of over 70 µM.
Compound `O=C(O)c1ccccc1Nc1cc(Cl)ccc1C(=O)O` [Compound 37, 2-((2-Carboxyphenyl)amino)-4-chlorobenzoic acid] has a ΔTm at 100 µM (PBRM1-BD2 [1]; read-out: PBRM1-BD2 ΔTm) of 0.3 ± 0.02 °C and an IC50 (PBRM1-BD2 [3]) of over 250 µM.
For `O=C(O)c1ccc(Cl)c2c(=O)c3ccccc3[nH]c12` [Compound 38, 1-Chloro-9-oxo-9,10-dihydroacridine-4-carboxylic acid], the ΔTm at 100 µM (PBRM1-BD2 [1]; [4]) was 0 °C and the IC50 (PBRM1-BD2 [3]) was over 250 µM.

— patent US20240190828A1, “Small Molecule Inhibitors of PBRM1-BD2” (The Medical College of Wisconsin, Inc., priority 2021, published 2024)
